# Results from US7008545B2, “Synergistic biocidal mixtures” (Hercules Incorporated, priority 2002, dated 2006).
# Columns and labels:
# [1] = test system: artificial bacterial consortium; test: Dose protocol, bacterial growth inhibition (O.D. 650 nm) in synthetic white water, concurrent fed strategy; format: cell-based; conditions: for ppm BIT / ppm BNPD / ppm DBDCB / ppm DBNPA / ppm DCOI / ppm DGH / ppm DIDAC / ppm Dithiol / ppm Glut / ppm MBT: alone or with AmBr; for ppm Sulfone: concentration of Sulfone at 50% inhibition
# Description: A measured amount of ammonium bromide activated with sodium hypochlorite and a measured amount of a non-oxidizing biocide were added to a suspension of bacteria. The effectiveness of the combination of the biocides is determined by measuring growth or lack thereof after an appropriate incubation time.
# (§1) The efficacy of the active materials and blends was determined using a dose protocol. The actives were evaluated in synthetic white water with pH values of 5.5 and 8.0. The materials were tested against an artificial bacterial consortium containing approximately equal numbers of six bacterial strains. Although the test strains are representative of organisms present in paper mill systems, the effect is not limited to these bacteria. Two of the strains were Klebsiella pneumonia (ATCC 13883) and Pseudomonas aeruginosa (ATCC 15442). The other four strains were isolated from papermill systems and have been identified as Curtobacterium flaccumfaciens, Burkholderia cepacia, Bacillus maroccanus, and Pseudomonas glathei. Each strain was inoculated at 37° C. overnight, then suspended in sterile saline. Equal volumes of each strain were then combined to prepare the consortium. The bacterial consortium was distributed into the wells of a microtiter plate in the presence and absence of various concentrations of the active materials. The microtiter plates were incubated at 37° C. Optical density (O.D.) readings at 650 nm were taken initially (t0) and after time 4 hours (t4) of incubation.
# (§2) The raw data was converted to “bacterial growth inhibition precentages” according to the following formula: % Inhibition=[(a−b)÷a]*100 where: • a=(O.D. of control at tn)−(O.D. of control at t0) • b=(O.D. of treatment at tn)−(O.D. of treatment at t0)
# (§3) The inhibition values can be plotted versus dosage for each active and the particular blend. […] In the examples (tables) below, the I50 values are expressed as parts per million (ppm) of active material.
# (§4) The synergism index (SI) was calculate by the equations described by F. C. Kull, P. C. Eisman, H. D. Sylwestrowicz, and R. L. Mayer (1961), Applied Microbiology 9, 538–541. The values are based on the amount needed to achieve a specified end point. The end point selected for these studies was 50% inhibition of bacterial growth. Synergy Index (SI)=(QA÷Qa)+(QB÷Qb) where: • QA=quantity of compound A in mixture, producing the end point • Qa=quantity of compound A, acting alone, producing the end point • QB=quantitiy of compound B in mixture, producing the end point • Qb=quantity of compound B, acting alone, producing the end point
# (§5) If SI is less than 1, synergism exists; if SI is greater than 1, antagonism exists; if SI is equal to 1, an additive effect exists.
# [2] = test system: artificial bacterial consortium; test: Dose protocol, bacterial growth inhibition (O.D. 650 nm) in synthetic white water, sequential fed strategy, one hour delay between the additions; format: cell-based; conditions: for ppm DBNPA: alone or with AmBr; for ppm MBT: concentration of MBT at 50% inhibition; for ppm Sulfone: concentration of Sulfone at 50% inhibition
# Description: A measured amount of ammonium bromide activated with sodium hypochlorite was added to a suspension of bacteria and the cell suspension incubated for a selected time after which a measured amount of a selected non-oxidizing biocide was then added to the suspension. The effectiveness of the combination of biocides was determined by measuring growth or lack thereof after an additional appropriate incubation time.
# A measured amount of a selected non-oxidizing biocide was added to a suspension of bacteria and the cell suspension was incubated for a selected time after which a measured amount of ammonium bromide activated with sodium hypochlorite was then added to the suspension. The effectiveness of the combination of biocides was determined by measuring growth or lack thereof after an additional appropriate incubation time.
# as §1, §2, §3, §4, §5
# [3] = pH 5.5, amount giving 50% inhibition
# [4] = pH 8.0, amount giving 50% inhibition
# [5] = DBNPA & AmBr, pH 5.5, end point 50% inhibition
# [6] = DBNPA & AmBr, pH 8.0, end point 50% inhibition
# [7] = pH 5.5, alone or with AmBr at the stated ratio
# [8] = pH 8.0, alone or with AmBr at the stated ratio
# [9] = Sulfone & AmBr, at 50% inhibition, pH 5.5
# [10] = Sulfone & AmBr, at 50% inhibition, pH 8.0
smiles,measurement,setting,value
"O=c1[nH]sc2ccccc12 [BIT, 1,2-Benzisothiazolin-3-one]",Synergy Index,"[1]; BIT & AmBr, pH 5.5, end point 50% inhibition",1.00
same,Synergy Index,"[1]; BIT & AmBr, pH 8.0, end point 50% inhibition",1.00
same,ppm BIT,[1]; [3],1.62 ppm
same,ppm BIT,[1]; [4],3.59 ppm
"O=[N+]([O-])C(Br)(CO)CO [BNPD, 2-Bromo-2-nitropropane-1,3-diol]",Synergy Index,"[1]; BNPD & AmBr, pH 5.5, end point 50% inhibition",1.00
same,Synergy Index,"[1]; BNPD & AmBr, pH 8.0, end point 50% inhibition",1.00
same,ppm BNPD,[1]; [3],1.16 ppm
same,ppm BNPD,[1]; [4],1.34 ppm
"N#CCCC(Br)(C#N)CBr (centres unmarked) [DBDCB, 1,2-Dibromo-2,4-dicyanobutane]",Synergy Index,"[1]; DBDCB & AmBr, pH 5.5, end point 50% inhibition",1.00
same,Synergy Index,"[1]; DBDCB & AmBr, pH 8.0, end point 50% inhibition",1.00
same,ppm DBDCB,[1]; [3],2.70 ppm
same,ppm DBDCB,[1]; [4],1.85 ppm
"N#CC(Br)(Br)C(N)=O [DBNPA, 2,2-Dibromo-3-nitrilopropionamide]",Synergy Index,[1]; [5],1.00
same,Synergy Index,[1]; [6],1.00
same,ppm DBNPA,[1]; [3],3.08 ppm
same,ppm DBNPA,[1]; [4],2.86 ppm
same,Synergy Index,[2]; [5],1.00
same,Synergy Index,[2]; [6],1.00
same,ppm DBNPA,[2]; [3],3.09 ppm
same,ppm DBNPA,[2]; [4],2.33 ppm
"CCCCCCCCn1sc(Cl)c(Cl)c1=O [DCOI, 4,5-Dichloro-2-n-octyl-3(2H)-isothiazolinone]",Synergy Index,"[1]; DCOI & AmBr, pH 5.5, end point 50% inhibition",1.00
same,Synergy Index,"[1]; DCOI & AmBr, pH 8.0, end point 50% inhibition",1.00
same,ppm DCOI,[1]; [3],0.39 ppm
same,ppm DCOI,[1]; [4],1.49 ppm
"CCCCCCCCCCCCNC(=N)N.Cl [DGH, N-Dodecylguanidine hydrochloride]",Synergy Index,"[1]; DGH & AmBr, pH 5.5, end point 50% inhibition",1.00
same,Synergy Index,"[1]; DGH & AmBr, pH 8.0, end point 50% inhibition",1.00
same,ppm DGH,[1]; [3],3.11 ppm
same,ppm DGH,[1]; [4],1.84 ppm
"CCCCCCCCCC[N+](C)(C)CCCCCCCCCC.[Cl-] [DIDAC, Didecyl dimethyl ammonium chloride]",Synergy Index,"[1]; DIDAC & AmBr, pH 5.5, end point 50% inhibition",1.00
same,Synergy Index,"[1]; DIDAC & AmBr, pH 8.0, end point 50% inhibition",1.00
same,ppm DIDAC,[1]; [3],1.82 ppm
same,ppm DIDAC,[1]; [4],1.62 ppm
"O=c1ssc(Cl)c1Cl [Dithiol, 4,5-Dichloro-1,2-dithiol-3-one]",Synergy Index,"[1]; Dithiol & AmBr, pH 5.5, end point 50% inhibition",1.00
same,Synergy Index,"[1]; Dithiol & AmBr, pH 8.0, end point 50% inhibition",1.00
same,ppm Dithiol,[1]; [3],0.63 ppm
same,ppm Dithiol,[1]; [4],0.84 ppm
"O=CCCCC=O [Glut, Glutaraldehyde]",Synergy Index,"[1]; Glut & AmBr, pH 5.5, end point 50% inhibition",1.00
same,Synergy Index,"[1]; Glut & AmBr, pH 8.0, end point 50% inhibition",1.00
same,ppm Glut,[1]; [3],2.06 ppm
same,ppm Glut,[1]; [4],6.68 ppm
"N#CSCSC#N [MBT, Methylene bisthiocyanate]",Synergy Index,"[1]; MBT & AmBr, pH 5.5, end point 50% inhibition",1.00
same,Synergy Index,"[1]; MBT & AmBr, pH 8.0, end point 50% inhibition",1.00
same,ppm MBT,[1]; [3],0.36 ppm
same,ppm MBT,[1]; [4],0.71 ppm
same,Synergy Index,"[2]; MBT & AmBr, at 50% inhibition, pH 5.5",1.00
same,Synergy Index,"[2]; MBTC & AmBr, at 50% inhibition, pH 8.0",1.00
same,ppm MBT,[2]; [7],0.38 ppm
same,ppm MBT,[2]; [8],0.73 ppm
"O=S(=O)(C(Cl)(Cl)Cl)C(Cl)(Cl)Cl [Sulfone, bis(trichloromethyl)sulfone]",Synergy Index,[1]; [9],1.00
same,Synergy Index,[1]; [10],1.00
same,ppm Sulfone,[1]; [7],1.87 ppm
same,ppm Sulfone,[1]; [8],8.42 ppm
same,Synergy Index,[2]; [9],1.00
same,Synergy Index,[2]; [10],1.00
same,ppm Sulfone,[2]; [7],4.44 ppm
same,ppm Sulfone,[2]; [8],10.25 ppm
